Measured values from PMC8998838, “Functional Characterization of the Solute Carrier LAT-1 (SLC7A5/SLC2A3) in Human Brain Capillary Endothelial Cells with Rapid UPLC-MS/MS Quantification of Intracellular Isotopically Labelled L-Leucine” (International Journal of Molecular Sciences, 2022).

Target: T1, L-type amino acid transporter 1 (LAT-1/SLC7A5) (Homo sapiens, UniProt Q01650)
T1 construct: with CD98 (4F2hc; SLC3A2, also printed as SLC2A3)
Test: inhibition of [[…]6, […]]-L-leucine uptake in hCMEC/D3 cells, UPLC-MS/MS
Type: cell-based

T1 sequence (Q01650 whole entry): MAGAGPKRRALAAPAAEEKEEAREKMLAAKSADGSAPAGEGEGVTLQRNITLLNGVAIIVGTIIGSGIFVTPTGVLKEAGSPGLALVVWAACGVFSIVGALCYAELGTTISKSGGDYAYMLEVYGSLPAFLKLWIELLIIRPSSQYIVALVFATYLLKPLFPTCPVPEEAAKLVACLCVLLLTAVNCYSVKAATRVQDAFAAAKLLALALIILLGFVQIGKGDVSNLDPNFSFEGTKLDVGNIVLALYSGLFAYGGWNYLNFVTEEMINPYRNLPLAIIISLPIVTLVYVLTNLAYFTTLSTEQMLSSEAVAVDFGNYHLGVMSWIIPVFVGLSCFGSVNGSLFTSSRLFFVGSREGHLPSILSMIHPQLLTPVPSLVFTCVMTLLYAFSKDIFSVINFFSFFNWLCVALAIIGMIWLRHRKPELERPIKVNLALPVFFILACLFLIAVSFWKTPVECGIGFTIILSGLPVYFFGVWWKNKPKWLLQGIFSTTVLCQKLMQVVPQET
T1 sequence (P08195 103-630 partner): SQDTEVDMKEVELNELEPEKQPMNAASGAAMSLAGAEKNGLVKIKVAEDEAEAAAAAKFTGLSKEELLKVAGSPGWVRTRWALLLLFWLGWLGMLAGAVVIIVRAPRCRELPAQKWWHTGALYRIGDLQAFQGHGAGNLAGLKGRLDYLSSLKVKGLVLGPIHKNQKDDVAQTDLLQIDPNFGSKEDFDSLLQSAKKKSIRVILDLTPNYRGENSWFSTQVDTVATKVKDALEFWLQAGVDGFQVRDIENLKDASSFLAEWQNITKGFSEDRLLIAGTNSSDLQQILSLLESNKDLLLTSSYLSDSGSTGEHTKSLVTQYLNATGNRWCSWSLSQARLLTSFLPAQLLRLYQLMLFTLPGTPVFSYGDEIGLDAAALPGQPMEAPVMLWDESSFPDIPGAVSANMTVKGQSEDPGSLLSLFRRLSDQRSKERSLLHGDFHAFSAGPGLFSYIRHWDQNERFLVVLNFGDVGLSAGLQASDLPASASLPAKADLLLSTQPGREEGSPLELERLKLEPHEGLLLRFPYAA

Compound | IC50
NC1(C(=O)O)CC2CCC1C2 (centres unmarked) [BCH, 2-aminobicyclo-(2,2,1)-heptane-2-carboxylic acid] | 91 ± 39 µM
Nc1cc(COc2c(Cl)cc(C[C@H](N)C(=O)O)cc2Cl)c2oc(-c3ccccc3)nc2c1 [JPH203] | 0.103 ± 0.015 µM
